Measured values as given in patent US20260092061A1, “COMPOUNDS FOR TARGETED PROTEIN DEGRADATION” (Amphista Therapeutics Limited, priority 2022, published 2026).
Read-outs that look alike come from different tables or passages of the source.

Target: T1, BRD9 (Homo sapiens, UniProt Q9H8M2)
T1 sequence (Q9H8M2 1-597): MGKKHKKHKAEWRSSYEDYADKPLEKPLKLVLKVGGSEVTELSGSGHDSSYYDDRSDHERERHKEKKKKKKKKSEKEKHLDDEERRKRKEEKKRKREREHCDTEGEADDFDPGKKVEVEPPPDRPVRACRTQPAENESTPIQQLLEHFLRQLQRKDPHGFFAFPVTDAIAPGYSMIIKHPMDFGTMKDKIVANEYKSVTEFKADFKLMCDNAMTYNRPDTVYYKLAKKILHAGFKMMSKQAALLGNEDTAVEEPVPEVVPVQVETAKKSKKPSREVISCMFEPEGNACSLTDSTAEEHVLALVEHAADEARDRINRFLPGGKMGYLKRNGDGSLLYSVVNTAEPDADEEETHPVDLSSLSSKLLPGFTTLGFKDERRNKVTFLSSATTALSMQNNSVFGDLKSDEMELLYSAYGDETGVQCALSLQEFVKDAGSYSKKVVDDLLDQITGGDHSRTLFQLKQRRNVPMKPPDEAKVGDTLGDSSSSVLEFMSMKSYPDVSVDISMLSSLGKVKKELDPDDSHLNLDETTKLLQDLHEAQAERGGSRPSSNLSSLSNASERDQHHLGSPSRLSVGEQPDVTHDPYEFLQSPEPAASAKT
Assay: Degradation of BRD9 (IF), immunofluorescence in MV4-11 cells, 24 hours (Assay Protocol 2)
Format: cell-based
Parameters: A suspension of MV4-11 cells (ATCC CRL-9591) was prepared; host or cells: MV4-11
Details: BRD9 degradation; for DC50: read-out: DC50
Procedure, shortened: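 % BRD9 remaining, scaled between DMSO (high) and 100 nM CFT-8634 (low) control wells, derives from mean Alexa 647 contrast in central nuclei by high-content imaging. MV4-11 cells had 24 h compound exposure at 37° C. before PFA fixation, Triton permeabilisation and anti-BRD9 E4Q3F immunostaining.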

[1] = MV4-11, Assay protocol 2, read-out: Dmax

Row | DC50 (Assay protocol 2) [nM] | Dmax [1] [%] | Dmax (Assay protocol 2) | Structure (SMILES)
1 | 1.25 to 10 | 70 to 75 | – | COc1cc(-c2cn(C)c(=O)c(C)c2C)cc(OC)c1CN1CCC(Cc2cccc3c2CCN(C(=O)/C(C#N)=C/C(C)(C)CF)[C@H]3C)CC1 (single isomer, unassigned) [Compound C60, (E/Z)-2-(5-((1-(2,6dimethoxy-4-(1,4,5-trimethyl-6-oxo-1,6-dihydropyridin-3-yl)benzyl)piperidin-yl)methyl)-1-methyl-1,2,3,4-tetrahydroisoquinoline-2-carbonyl)-5-fluoro-4,4-dimethylpent-2-enenitrile]
2 | 1.25 to 10 | 40 to 70 | – | COc1cc(-c2cn(C)c(=O)c(C)c2C)cc(OC)c1CN1CCC(N(C)c2ccc3c(c2)[C@@H](C)N(C(=O)/C(C#N)=C/C(C)(C)C)CC3)CC1 (single isomer, unassigned) [Compound C65]
3 | 1.25 to 10 | 40 to 70 | – | COc1cc(-c2cn(C)c(=O)c(C)c2C)cc(OC)c1CN1CCC2(CC1)CCN(c1ccc3c(c1)[C@H](C)N(C(=O)/C(C#N)=C/C(C)(C)C)CC3)C2 (single isomer, unassigned) [Compound C66]
4 | 25 to 1000 | 40 to 70 | – | COc1cc(-c2cn(C)c(=O)c(C)c2C)cc(OC)c1CN1CC(N(C)Cc2ccc3c(c2)[C@H](C)N(C(=O)/C(C#N)=C/C(C)(C)C)CC3)C1 (single isomer, unassigned) [Compound C70, (E/Z)-2-(7-(((1-(2,6-dimethoxy-4-(1,4,5-trimethyl-6-oxo-1,6-dihydropyridin-3-yl)benzyl)460zetidine-4-yl)(methyl)amino)methyl)-1-methyl-1,2,3,4-tetrahydroisoquinoline-2-carbonyl)-4,4-dimethylpent-2-enenitrile]
5 | 25 to 1000 | 40 to 70 | – | COc1cc(-c2cn(C)c(=O)c(C)c2C)cc(OC)c1CN1CC(N(C)Cc2ccc3c(c2)[C@@H](C)N(C(=O)/C(C#N)=C/C(C)(C)C)CC3)C1 (single isomer, unassigned) [Compound C71, (E/Z)-2-(7-(((1-(2,6-dimethoxy-4-(1,4,5-trimethyl-6-oxo-1,6-dihydropyridin-3-yl)benzyl)460zetidine-4-yl)(methyl)amino)methyl)-1-methyl-1,2,3,4-tetrahydroisoquinoline-2-carbonyl)-4,4-dimethylpent-2-enenitrile]
6 | 1.25 to 10 | > 75 | – | COc1cc(-c2cn(C)c(=O)c(C)c2C)cc(OC)c1CN1CCC(Oc2ccc3c(c2)[C@H](C)N(C(=O)/C(C#N)=C/C(C)(C)C)CC3)CC1 (single isomer, unassigned) [Compound C73, (E/Z)-2-(7-((1-(2,6-dimethoxy-4-(1,4,5-trimethyl-6-oxo-1,6-dihydropyridin-3-yl)benzyl)piperidin-4-yl)oxy)-1-methyl-1,2,3,4-tetrahydroisoquinoline-2-carbonyl)-4,4-dimethylpent-2-enenitrile]
7 | 1.25 to 10 | 70 to 75 | – | COc1cc(-c2cn(C)c(=O)c(C)c2C)cc(OC)c1CN1CCN(Cc2cccc3c2CCN(C(=O)/C(C#N)=C/C(C)(C)CF)C3C(C)C)C2(CC2)C1 (single isomer, unassigned) [Compound C76, (E/Z)-2-(5-((7-(2,6-dimethoxy-4-(1,4,5-trimethyl-6-oxo-1,6-dihydropyridin-3-yl)benzyl)-4,7-diazaspiro[2.5]octan-4-yl)methyl)-1-isopropyl-1,2,3,4-tetrahydroisoquinoline-2-carbonyl)-5-fluoro-4,4-dimethylpent-2-enenitrile]
8 | < 1.25 | – | +++ (+++ = ≥75%) | COc1cc(-c2cn(C)c(=O)c(C)c2C)cc(OC)c1CN1CCN(Cc2cccc3c2CCN(C(=O)/C(C#N)=C/C(C)(C)CF)C3C(C)C)C2(CC2)C1 (single isomer, unassigned) [Compound C77, (E/Z)-2-(5-((7-(2,6-dimethoxy-4-(1,4,5-trimethyl-6-oxo-1,6-dihydropyridin-3-yl)benzyl)-4,7-diazaspiro[2.5]octan-4-yl)methyl)-1-isopropyl-1,2,3,4-tetrahydroisoquinoline-2-carbonyl)-5-fluoro-4,4-dimethylpent-2-enenitrile]
9 | < 1.25 | > 75 | – | COc1cc(-c2cn(C)c(=O)c(C)c2C)cc(OC)c1CN1CCN(Cc2cccc3c2CCN(C(=O)/C(C#N)=C/C(C)(C)C)[C@H]3C(C)C)C2(CC2)C1 (single isomer, unassigned) [Compound C78, (E/Z)-2-(5-((7-(2,6-dimethoxy-4-(1,4,5-trimethyl-6-oxo-1,6-dihydropyridin-3-yl)benzyl)-4,7-diazaspiro[2.5]octan-4-yl)methyl)-1-isopropyl-1,2,3,4-tetrahydroisoquinoline-2-carbonyl)-4,4-dimethylpent-2-enenitrile]
10 | 25 to 1000 | 40 to 70 | – | COc1cc(-c2cn(C)c(=O)c(C)c2C)cc(OC)c1CN1CCN(Cc2cccc3c2CCN(C(=O)/C(C#N)=C/C(C)(C)C)[C@@H]3C(C)C)C2(CC2)C1 (single isomer, unassigned) [Compound C79, (E/Z)-2-(5-((7-(2,6-dimethoxy-4-(1,4,5-trimethyl-6-oxo-1,6-dihydropyridin-3-yl)benzyl)-4,7-diazaspiro[2.5]octan-4-yl)methyl)-1-isopropyl-1,2,3,4-tetrahydroisoquinoline-2-carbonyl)-4,4-dimethylpent-2-enenitrile]
11 | 1.25 to 10 | > 75 | – | COc1cc(-c2cn(C)c(=O)c(C)c2C)cc(OC)c1CN1CCN(Cc2cccc3c2CCN(C(=O)/C(C#N)=C/C(C)(C)C)[C@H]3C(C)C)CC12CC2 (single isomer, unassigned) [Compound C81, (E/Z)-2-(5-((4-(2,6-dimethoxy-4-(1,4,5-trimethyl-6-oxo-1,6-dihydropyridin-3-yl)benzyl)-4,7-diazaspiro[2.5]octan-7-yl)methyl)-1-isopropyl-1,2,3,4-tetrahydroisoquinoline-2-carbonyl)-4,4-dimethylpent-2-enenitrile]
12 | 25 to 1000 | 40 to 70 | – | COc1cc(-c2cn(C)c(=O)c(C)c2C)cc(OC)c1CN1CCN(Cc2cccc3c2CCN(C(=O)/C(C#N)=C/C(C)(C)C)[C@@H]3C(C)C)CC12CC2 (single isomer, unassigned) [Compound C82, (E/Z)-2-(5-((4-(2,6-dimethoxy-4-(1,4,5-trimethyl-6-oxo-1,6-dihydropyridin-3-yl)benzyl)-4,7-diazaspiro[2.5]octan-7-yl)methyl)-1-isopropyl-1,2,3,4-tetrahydroisoquinoline-2-carbonyl)-4,4-dimethylpent-2-enenitrile]
13 | 25 to 1000 | > 75 | – | COc1cc(-c2cn(C)c(=O)c(C)c2C)ccc1OC1CCC(Cc2cccc3c2CCN(C(=O)C(C#N)=CC(C)(C)N2CCN(C4COC4)CC2)C3C(C)C)CC1 (single isomer, unassigned) [Compound C86]
14 | 10 to 25 | 70 to 75 | – | COc1cc(-c2cn(C)c(=O)c(C)c2C)cc(OC)c1CN1CCN(Cc2ccc3c(c2)[C@H](C(C)C)N(C(=O)/C(C#N)=C/C(C)(C)C)CC3)C2(CC2)C1 (single isomer, unassigned) [Compound C87, (E/Z)-2-(7-((7-(2,6-dimethoxy-4-(1,4,5-trimethyl-6-oxo-1,6-dihydropyridin-3-yl)benzyl)-4,7-diazaspiro[2.5]octan-4-yl)methyl)-1-isopropyl-1,2,3,4-tetrahydroisoquinoline-2-carbonyl)-4,4-dimethylpent-2-enenitrile]
15 | 25 to 1000 | 40 to 70 | – | COc1cc(-c2cn(C)c(=O)c(C)c2C)cc(OC)c1CN1CCN(Cc2ccc3c(c2)[C@@H](C(C)C)N(C(=O)/C(C#N)=C/C(C)(C)C)CC3)C2(CC2)C1 (single isomer, unassigned) [Compound C88, (E/Z)-2-(7-((7-(2,6-dimethoxy-4-(1,4,5-trimethyl-6-oxo-1,6-dihydropyridin-3-yl)benzyl)-4,7-diazaspiro[2.5]octan-4-yl)methyl)-1-isopropyl-1,2,3,4-tetrahydroisoquinoline-2-carbonyl)-4,4-dimethylpent-2-enenitrile]

Row | Structure (SMILES) | DC50 (Assay protocol 2) [nM] | Dmax [1] [%] | Dmax (Assay protocol 2)
16 | COc1cc(-c2cn(C)c(=O)c(C)c2C)cc(OC)c1CN1CC2CC(C1)N2Cc1ccc2c(c1)[C@H](C)N(C(=O)/C(C#N)=C/C(C)(C)C)CC2 (single isomer, unassigned) [Compound C63, (E/Z)-2-(7-((3-(2,6-dimethoxy-4-(1,4,5-trimethyl-6-oxo-1,6-dihydropyridin-3-yl)benzyl)-3,6-diazabicyclo[3.1.1]heptan-6-yl)methyl)-1-methyl-1,2,3,4-tetrahydroisoquinoline-2-carbonyl)-4,4-dimethylpent-2-enenitrile] | 1.25 to 10 | > 75 | –
17 | COc1cc(-c2cn(C)c(=O)c(C)c2C)cc(OC)c1CN1CC2CC(C1)N2Cc1ccc2c(c1)[C@@H](C)N(C(=O)/C(C#N)=C/C(C)(C)C)CC2 (single isomer, unassigned) [Compound C64, (E/Z)-2-(7-((3-(2,6-dimethoxy-4-(1,4,5-trimethyl-6-oxo-1,6-dihydropyridin-3-yl)benzyl)-3,6-diazabicyclo[3.1.1]heptan-6-yl)methyl)-1-methyl-1,2,3,4-tetrahydroisoquinoline-2-carbonyl)-4,4-dimethylpent-2-enenitrile] | 25 to 1000 | 40 to 70 | –
